Data: ChEMBL document CHEMBL1134426, “Derivatives of 17-(2-methylallyl)-substituted noroxymorphone: variation of the delta address and its effects on affinity and selectivity for the delta opioid receptor” (Bioorg Med Chem Lett, 2001)

What was measured:
[1] = target: Kappa-type opioid receptor (Homo sapiens, UniProt P41145); test: Displacement of [3H]U-69593 from Opioid receptor kappa 1
[2] = target: Delta-type opioid receptor (Homo sapiens, UniProt P41143); test: Displacement of [3H]DADLE from Opioid receptor delta 1
Mu-type opioid receptor = Mu-type opioid receptor (Homo sapiens, UniProt P35372); test: Displacement of [3H]DAMGO from Opioid receptor mu 1
[3] = target: Opioid receptors; mu & delta (Homo sapiens) (UniProt P41143+P35372); test: Selectivity ratio for mu and delta opioid receptor binding; format: protein assay
[4] = target: Opioid receptors; delta & kappa (Homo sapiens) (UniProt P41145+P41143); test: Selectivity ratio for kappa and delta opioid receptor binding; format: protein assay
Sequence of Opioid receptors; delta & kappa (Homo sapiens) (P41143 whole entry, looked up): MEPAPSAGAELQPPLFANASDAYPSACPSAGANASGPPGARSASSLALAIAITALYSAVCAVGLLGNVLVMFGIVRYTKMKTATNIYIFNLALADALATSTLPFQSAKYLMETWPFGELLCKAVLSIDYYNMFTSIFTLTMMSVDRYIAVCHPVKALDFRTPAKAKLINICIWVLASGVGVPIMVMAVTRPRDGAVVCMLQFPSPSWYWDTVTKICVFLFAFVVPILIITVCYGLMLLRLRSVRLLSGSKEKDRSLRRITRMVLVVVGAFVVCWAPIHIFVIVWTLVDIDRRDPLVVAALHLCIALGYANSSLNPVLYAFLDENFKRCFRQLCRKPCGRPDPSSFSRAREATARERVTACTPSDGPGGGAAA
Sequence of Opioid receptors; delta & kappa (Homo sapiens) (P41145 whole entry, looked up): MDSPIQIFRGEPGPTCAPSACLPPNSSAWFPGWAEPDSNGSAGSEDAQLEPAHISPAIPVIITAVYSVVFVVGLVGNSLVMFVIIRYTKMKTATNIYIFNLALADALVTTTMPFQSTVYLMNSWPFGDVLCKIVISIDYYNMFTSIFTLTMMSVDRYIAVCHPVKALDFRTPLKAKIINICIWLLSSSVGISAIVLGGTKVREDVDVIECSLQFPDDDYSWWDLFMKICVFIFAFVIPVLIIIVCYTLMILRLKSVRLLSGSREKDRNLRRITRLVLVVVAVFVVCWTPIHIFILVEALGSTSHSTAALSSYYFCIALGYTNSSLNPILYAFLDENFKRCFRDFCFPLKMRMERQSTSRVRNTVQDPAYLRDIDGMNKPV

Sequence of Delta-type opioid receptor (P41143 whole entry): as the sequence (P41143 whole entry, looked up) above
Sequence of Mu-type opioid receptor (P35372 whole entry): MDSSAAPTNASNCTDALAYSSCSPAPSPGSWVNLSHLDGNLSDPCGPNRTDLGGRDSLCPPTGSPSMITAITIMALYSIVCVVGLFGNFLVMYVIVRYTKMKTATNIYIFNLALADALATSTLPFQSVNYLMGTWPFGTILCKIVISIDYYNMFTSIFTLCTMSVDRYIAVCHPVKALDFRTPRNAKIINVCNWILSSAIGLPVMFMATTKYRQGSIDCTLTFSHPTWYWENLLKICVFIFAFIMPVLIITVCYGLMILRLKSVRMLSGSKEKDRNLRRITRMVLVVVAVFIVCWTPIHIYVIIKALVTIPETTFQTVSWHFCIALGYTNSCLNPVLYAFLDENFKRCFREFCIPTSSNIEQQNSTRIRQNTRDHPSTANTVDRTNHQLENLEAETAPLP
Sequence of Opioid receptors; mu & delta (Homo sapiens) (P35372 whole entry, looked up): as the sequence (P35372 whole entry) above
Sequence of Opioid receptors; mu & delta (Homo sapiens) (P41143 whole entry, looked up): as the sequence (P41143 whole entry, looked up) above
Sequence of Kappa-type opioid receptor (P41145 whole entry): as the sequence (P41145 whole entry, looked up) above

SMILES	Ki [1] [µM]	Ki [2] [nM]	Ki (Mu-type opioid receptor) [µM]	Selectivity ratio [3]	Selectivity ratio [4]
C=C(C)CN1CCC23c4c5ccc(OC)c4O[C@H]2c2oc4ccccc4c2C[C@@]3(O)C1C5 (stereo partly drawn)	> 10	44	> 6	140	230
C=C(C)CN1CCC23c4c5ccc(OC)c4O[C@H]2C(=O)C2(Cc4ccccc4C2)C[C@@]3(O)C1C5 (stereo partly drawn)	> 7	> 7200	> 6		
C=C(C)CN1CCC23c4c5ccc(O)c4O[C@H]2c2ncc(-c4ccc(Cl)cc4)cc2C[C@@]3(O)C1C5 (stereo partly drawn)	0.3	16	> 6	> 380	19
C=C(C)CN1CCC23c4c5ccc(O)c4O[C@H]2c2n[nH]cc2C[C@@]3(O)C1C5 (stereo partly drawn)				4	1
C=C(C)CN1CCC23c4c5ccc(OC)c4O[C@H]2c2[nH]ncc2C[C@@]3(O)C1C5 (stereo partly drawn)	3.1	2400	> 6		
C=C(C)CN1CCC23c4c5ccc(OC)c4O[C@H]2c2ncc(-c4ccc(Cl)cc4)cc2C[C@@]3(O)C1C5 (stereo partly drawn)	3.2	260	> 6	23	12
C=C(C)CN1CCC23c4c5ccc(O)c4O[C@H]2C(=O)/C(=C/c2ccccc2)C[C@@]3(O)C1C5 (stereo partly drawn)	4.5	210	4.5	21	21
C=C(C)CN1CCC23c4c5ccc(OC)c4O[C@H]2C(=O)/C(=C/c2ccccc2)C[C@@]3(O)C1C5 (stereo partly drawn)	> 7	3400	> 6	> 1	> 2
C=C(C)CN1CCC23c4c5ccc(O)c4O[C@H]2C(=O)C2(Cc4ccccc4C2)C[C@@]3(O)C1C5 (stereo partly drawn)	1	41	2	49	24
C=C(C)CN1CCC23c4c5ccc(O)c4O[C@H]2c2[nH]c4ccccc4c2C[C@@]3(O)C1C5 (stereo partly drawn)	3.8	4.7	7.9	1700	810
C=C(C)CN1CCC23c4c5ccc(OC)c4O[C@H]2c2n[nH]cc2C[C@@]3(O)C1C5 (stereo partly drawn)				> 2	1
C=C(C)CN1CCC23c4c5ccc(O)c4O[C@H]2c2[nH]ncc2C[C@@]3(O)C1C5 (stereo partly drawn)	0.038	40	0.14		
C=C(C)CN1CCC23c4c5ccc(OC)c4O[C@H]2c2[nH]c4ccccc4c2C[C@@]3(O)C1C5 (stereo partly drawn)	> 14	500	> 6	> 12	> 28
C=C(C)CN1CCC23c4c5ccc(O)c4O[C@H]2c2oc4ccccc4c2C[C@@]3(O)C1C5 (stereo partly drawn)	0.58	8.2	1.3	160	71
